Test results reported in patent US12365672B2, “Compounds and their use for the treatment of alpha1-antitrypsin deficiency” (CENTESSA PHARMACEUTICALS (UK) LIMITED, priority 2019, dated 2025).

Molecular target: T1, human Z A1AT (Homo sapiens, UniProt P01009, E366K)
T1 construct: expressed in transfected cells; host or cells: HEK-Z cells (human embryonic kidney cell line)
Test: A1AT cell secretion assay using HEK-Z cells (ELISA of supernatant)
Type: cell-based
Conditions: 48 h, A1AT in supernatant by ELISA
Experimental: HEK-Z cells, a human embryonic kidney cell line stably transfected with the human Z A1AT gene, were plated into 96 well plates (3.0×10^5 cells/ml with 200 μl of media/well) overnight at 37° C. in a humidified atmosphere containing 5% CO2. Following incubation cells were washed with 200 μl serum-free media three times and media was replaced with treatments in quadruplicate using serum free media containing either vehicle, 10 μM suberanilohydroxamic acid (SAHA) or a compound of the invention (at concentrations of 10, 33, 100 and 333 nM) for 48 h in a 37° C. incubator in a final volume of 200 μl. At the end of the incubation step the supernatants were removed from the wells, centrifuged at 1000×g at 4° C. for 10 min and were assayed for human A1AT levels by ELISA (Human Serpin A1/α1-antitrypsin duo set ELISA, R& D Systems, DY1268) per manufacturer's instructions.
Briefly, a 96 well plate was coated with human A1AT capture antibody overnight at room temperature (1:180 dilution from stock, 100 μl final volume/well). The capture antibody was then removed and wells washed three times with 300 μl wash buffer (0.05% Tween 20 in PBS) and then 200 μl reagent diluent ([…]) was incubated in each well for 1 h at room temperature. Diluted samples, standards (125, 250, 500, 1000, 2000, 4000 and 8000 pg/ml A1AT) or blanks were then added to each well in duplicate and the plates were covered with a plate sealer and left at room temperature for 2 h. At the end of the sample incubation step, samples were removed and all wells washed as previously and 100 μl detection antibody (1:180 dilution from stock) was added to each well and incubated for a further 2 h at room temperature. […] After which, 50 μl stop solution (2M H2SO4) was added and optical density (OD) of each well was read at 450 nm with 570 nm blank subtracted from each well using a microplate reader. A 4 parameter logistic curve was constructed using GraphPad Prism 7 and A1AT concentrations were determined in each sample by interpolation from a standard curve and multiplying by the appropriate dilution factor.

T1 sequence (P01009 25-418 E366K): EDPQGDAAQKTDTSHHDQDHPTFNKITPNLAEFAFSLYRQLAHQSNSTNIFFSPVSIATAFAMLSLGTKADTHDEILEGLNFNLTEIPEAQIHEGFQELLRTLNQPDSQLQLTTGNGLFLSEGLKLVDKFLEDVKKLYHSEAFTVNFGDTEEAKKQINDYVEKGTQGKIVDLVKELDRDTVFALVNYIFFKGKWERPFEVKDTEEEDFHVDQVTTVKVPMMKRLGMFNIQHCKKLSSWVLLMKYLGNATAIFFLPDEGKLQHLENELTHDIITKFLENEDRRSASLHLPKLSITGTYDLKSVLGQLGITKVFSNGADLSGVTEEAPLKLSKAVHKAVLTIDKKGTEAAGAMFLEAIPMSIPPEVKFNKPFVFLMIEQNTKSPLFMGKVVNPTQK

SMILES	Median A1AT % increase over vehicle at 300 nM [%]
O=c1ccncn1Cc1ccc(-c2ncco2)cc1 [Example 1, 3-(4-(oxazol-2-yl)benzyl)pyrimidin-4(3H)-one]	180
O=c1cc[nH]c(=O)n1Cc1ccc(-c2ncco2)cc1 [Example 3, 3-(4-(oxazol-2-yl)benzyl)pyrimidine-2,4(1H,3H)-dione]	180
O=c1c2ccccc2ncn1Cc1ccc(-c2ncco2)cc1 [Example 2, 3-(4-(oxazol-2-yl)benzyl)quinazolin-4(3H)-one]	140
